For 87 compounds, melting point results are on record in a melting point compilation (Tetko et al.; mined from patent text by program, amines drawn as free bases though some values may be those of a salt).

Residues, ends and D or L forms follow the SMILES beside them. *: point of attachment. Boc = CC(C)(C)OC(=O)*

Turning to `COc1cc(OC)cc(C(C)CCCc2ccncc2)c1` (configuration not stated), the melting point lay in the range of 131 to 133 °C.
`CC(NC(=O)C(Cc1ccc(O)cc1)NC(=O)OC(C)(C)C)C(=O)NCC(=O)O` (stereo not drawn) (Boc-Tyr-Ala-Gly-OH; configuration not given here) displayed a melting point of 194 to 197 °C.
`Cc1cc(C(F)(F)F)nc(OCC2CO2)c1C(=O)C1=C(O)C2CCC(C2)C1=O` (configuration not stated) had a melting point of 54 to 56 °C.
For `OC(CCn1ccnc1)c1ccccc1` (configuration not stated) the value was 106 to 108 °C.
`Cc1oc(-c2ccccc2)nc1CCc1nc(COc2cccc(CC(=O)O)c2)co1` had a melting point of 127 to 128 °C.
For `COc1ccc(C2(C#Cc3cccc(NC(C)=O)c3)CCC(=O)CC2)cc1OC1CCCC1` the value was 63 to 64 °C; for `NCCNC(=O)Nc1ccc2[nH]ccc2c1`, 156 to 158 °C.
`COc1cn(-c2ccc(-n3cccn3)cc2F)nc(-c2ccnn2-c2ccccc2F)c1=O`: the melting point lay within 202 to 206 °C.
For `CC(NC(=O)c1ccccc1)c1c[nH]c(-c2ccccc2)n1` (configuration not stated) the value was 132 to 135 °C.
`CC(=O)c1cc(-c2cccc(Cl)c2)ccc1N` yielded a melting point of 89 to 90 °C.
For `Sc1nc2cc3ccccc3cc2[nH]1` the value was 303 to 305 °C; for `Nc1ccc([N+](=O)[O-])cc1-c1cc([N+](=O)[O-])ccc1N`, 315 to 317 °C; for `Clc1ccc(-c2cc(C3CC3)n3nccc3n2)cc1`, 137 to 138 °C.
The compound `CC(=O)Oc1ccccc1-c1nn2cc(-c3ccccc3)nc2s1` had a melting point of 177 °C.
Turning to `On1nnc2ccc(C3CCCc4cncn43)cc21` (configuration not stated), the melting point was 279 °C.
For `CNc1cc(-n2cc(C(=O)O)c(=O)c3cc(F)c(F)c(C)c32)c(F)cc1F` the value was 238 °C.
In turn, `CCOC(=O)CC1SC2=Nc3ccccc3CN2C1=O` (configuration not stated) came in with a melting point of 130 to 142 °C.
For `O=C(O)c1ccc(Oc2ccc(Oc3ccc(C(=O)O)c(C(=O)O)c3)c(P(=O)(c3ccccc3)c3ccccc3)c2)cc1C(=O)O` the value was 212 to 218 °C; for `O=C1N=C(N2CCOCC2)SC1=Cc1cc(-c2ccccc2)cc(-c2ccc(O)c(C34CC5CC(CC(C5)C3)C4)c2)c1`, 315 to 320 °C; for `COCc1c(C(C)C)nc(-c2ccc(F)cc2)c(C=O)c1C(C)C`, 77 °C.
The compound `O=C(CCCc1ccccc1)c1c(O)c2cccnc2n(-c2ccccc2)c1=O` registered a melting point of 200 to 202 °C.
For `CNn1cc(C(=O)O)c(=O)c2cc(F)c(N3CCC(N)C3)c(F)c21` (configuration not stated) the value was 210 to 211 °C; for `CCOCc1nc2c(N)nc3ccccc3c2n1CCCc1cc(-c2cccnc2)no1`, 199 to 200 °C; for `CCOC(=O)C1=C(C)N2CCCC2=C(C(C)=O)C1c1cccc([N+](=O)[O-])c1` (configuration not stated), 161 °C.
In turn, `O=C1NC(=O)C(=Cc2ccc(OCCCN3Cc4ccccc4C3=O)cc2)S1` yielded a melting point of 260 to 263 °C.
Regarding `COc1ccc2c(c1)N(C(C)=O)C1=C(S2)C(S(C)(=O)=O)=CCC1=O`, the melting point turned out to be 160 °C.
Compound `COc1cc(C(C)=O)ccc1OCCCN1CCCC(C(O)(c2ccc(F)cc2)c2ccc(F)cc2)C1` (configuration not stated) had a melting point of 100 to 105 °C.
For the compound `CC(C)C(=O)N1CCC(C2(c3cccc(-c4ccccc4)c3)N=C(N)N(C)C2=O)CC1` (configuration not stated), the melting point is 131 to 134 °C.
For `CN(C)C(=O)Cc1cccc(C(=O)c2ccccc2)c1N` the value was 123 to 124 °C; for `CSc1nc(Cl)c(-c2c(F)cc(F)cc2F)c(Cl)n1`, 75 °C; for `O=C(OC1CCC1)c1ccc(O)c(C(=O)O)c1`, 200 °C.
The compound `COC(=O)NC(=S)Nc1ccccc1NC(=O)CCl` had a melting point of 156 to 158 °C.
Consider `CC1=C(C(=O)OC2CCCC2)C(c2cccc([N+](=O)[O-])c2)C([N+](=O)[O-])=C(C)N1` (configuration not stated), for which the melting point turned out to be 174 °C.
The compound `COC(=O)c1cc(Br)n2c1CN(C(=O)OC(C)(C)C)CC2` gave a melting point of 109 °C.
The compound `C=C(C)COc1cc(C)c(NC=O)c(C)c1C` registered a melting point of 144 to 145 °C.
The compound `CNC(=O)CN1CCc2cc(Nc3ncc(Cl)c(Nc4ccc(N5CCOCC5)cc4OC)n3)c(OC)cc2CC1` returned a melting point of 113 to 130 °C.
In turn, `COP(=O)(OC)C(C)C(NC(=O)OCc1ccccc1)C(=O)N[C@@H](Cc1ccccc1)[C@H](O)C(=O)N1C[C@@H](Cl)C[C@H]1C(=O)NC(C)(C)C` (some centres not stated) showed a melting point of 93 to 100 °C.
As to `Clc1cc2nc(NC3CC3)[nH]c2cc1Cl`, the melting point was 223 to 225 °C.
For the compound `O=C(Nc1ccccc1Br)OCc1cn(-c2cc3cc(C(=O)O)c(=O)[nH]c3cc2C(F)(F)F)cn1`, the melting point was in the range of 145 to 147 °C.
For `CCC(O)(C(=O)c1ccccc1)c1ccccc1` (configuration not stated) the value was 62 to 68 °C; for `COc1ccc(-c2ccc(OC(CCC3=CCCCC3)C(=O)O)cc2)cc1` (configuration not stated), 152 to 154 °C; for `CCc1cccc2c3c([nH]c12)C(CC)(CCOC(C)=O)OCC3` (configuration not stated), 126 to 127 °C.
The same measure for `COc1cc(O)ccc1CCCc1ccc(O)cc1`: 88 to 89 °C.
For the compound `CC1(C)C(=O)Nc2cc3[nH]c(C(F)(F)F)nc3cc21`, the melting point was in the range of 175 to 177 °C.
For `Cc1nc(N2CCN(Cc3ccc(C(F)(F)F)cc3)C2=O)sc1C(N)=O` the value was 216 to 217 °C.
The compound `CC(C)NC(=O)CCC(=O)c1ccccc1` had a melting point of 118 to 121 °C.
Compound `Cc1cc(S)n2nc(C(=O)NN)nc2n1` yielded a melting point of 221 to 222 °C.
Regarding `COc1ccc(CC(=O)N2C=CC(C)(C)C=C2)cc1OC`, the melting point was 86 to 89.5 °C.
On to `COc1ccc(C2CN(c3cc(C)c4c(c3C)CC(C)(C)O4)CCO2)cc1` (configuration not stated), for which the melting point is 107 to 108 °C.
For `CN(CCCCCCCNC(=O)NCCSCc1csc(NC(=N)N)n1)CCN(Cc1ccc(F)cc1)c1ccccn1` the value was 125 °C.
`CC(=O)c1ccc(N2CCCCC2)c(S(N)(=O)=O)c1` displayed a melting point of 130 to 132 °C.
For the compound `COc1ccc(C2=NN(CCCCCCBr)C(=O)[C@H]3CC=CC[C@@H]23)cc1OC` (relative stereo), the melting point lay within 55 to 56 °C.
For `CCOC(=O)C(=NOC)C(C)=NNC(=O)OC(C)(C)C` the value was 144 to 145 °C; for `CC1(C)CC(=O)C1(Br)CC(Br)(Br)Br` (configuration not stated), 61 to 63 °C.
Turning to `O=c1ccn(-c2cccc(C(F)(F)F)c2)nc1-c1ccnn1-c1ccc(Cl)cc1`, the melting point was in the range of 166 to 167 °C.
`Cn1c(-c2ccc(Cl)cc2)c(C#N)c(Br)c1C(F)(F)F` returned a melting point of 126 to 129 °C.
With `CS(=O)(=O)N(CCc1ccccc1)Cc1cccnc1`, the melting point fell in the range of 94 to 95 °C.
The compound `CCCCCN(CCC12CC3CC(CC(C3)C1)C2)C(=O)NC(C)CCc1ccncc1` (configuration not stated) yielded a melting point of 128 to 129 °C.
`CC(C(=O)O)c1ccc2cc(OCc3csc(-c4ccccc4)n3)ccc2c1` (configuration not stated) gave a melting point of 163 to 164 °C.
The compound `COC(=O)CCCOc1cc([N+](=O)[O-])c(COc2ccccc2)cc1OC` came in with a melting point of 96 to 98 °C.
The same measure for `COC(=O)c1ccccc1C(=O)c1ccc(-n2ccnc2)cc1`: 134 to 136 °C; for `CN(C)Cc1ccc(C2(O)CCC3(CC2)OCCO3)cc1`: 84 to 86 °C.
On to `Oc1cccc(NCCc2ccccc2)n1`, for which the melting point lay within 97 to 99 °C.
In turn, `OC(CCCN1CC=C(c2ncco2)CC1)c1ccc(F)cc1` (configuration not stated) had a melting point of 100 to 103 °C.
With `COP(=O)(Cc1ccc2ccccc2c1)OC`, the melting point lay in the range of 80 to 81 °C.
Compound `C=Cc1ccc(CN2C(=O)c3ccccc3C2=O)c2ccccc12` returned a melting point of 146 to 147 °C.
For the compound `CCOC(=O)C1=C(C)NC(COCCN2C(=O)c3ccccc3C2=O)=C(C(=O)OC)C1c1cccc(Cl)c1Cl` (configuration not stated), the melting point turned out to be 165 °C.
In turn, `CC(=O)c1c(O)cccc1OCCCCCOc1ccc2cc(C(=O)O)ccc2c1` returned a melting point of 190 to 193 °C.
In the case of `NNC(=O)c1ccccc1Nc1cccc(C(F)(F)F)c1`, the melting point lay within 134 to 135 °C.
Turning to `CC(CO)N1c2ccccc2Sc2ccc(C(N)=S)cc21` (racemic), the melting point is 152 °C.
For `O=C(O)Cc1ccc(OCCNC(=O)C2Cc3ccccc3N2S(=O)(=O)c2ccc(-c3ccc(F)cc3)c(C(F)(F)F)c2)cc1` (configuration not stated) the value was 92 °C.
Regarding `COc1ccc2ccc3c(c2c1)C=C(C(=O)O)CO3`, the melting point was 226 °C.
`Cc1cc(Cl)ncc1C(=O)Nc1ccc2c(c1)-c1c(c(C(N)=O)nn1-c1ccc(F)cc1)CC2` returned a melting point of 280 to 284 °C.
As to `c1ccc(N2c3ccccc3Sc3ccccc32)nc1`, the melting point fell in the range of 107 to 109 °C.
The same measure for `Cc1cc(C)c(N2C(=N)N(c3c(C)cccc3C)CC2C)c(C)c1` (configuration not stated): 128 to 130 °C.
The compound `CC(C)(C)c1cc(C(=O)Nc2cnc3ccc(Cl)cc3c2-c2ccccc2)cc(C(C)(C)C)c1O` showed a melting point of 232 to 235 °C.
The compound `COc1cccc2sc(-c3ccc(C(F)(F)F)cc3)nc12` registered a melting point of 104 °C.
As for `Nc1ccc(OC[C@@H]2CCCN2c2ccc3ccccc3n2)cc1`, the melting point was 138 to 140 °C.
With `Cc1scc2c1N(C(=O)N1CCCC(CCCN(C)C)C1)c1ccccc1NC2=O` (configuration not stated), the melting point lay in the range of 137 to 139 °C.
For the compound `COC(=O)c1ccc(-c2nccc3ccn(S(=O)(=O)c4ccc(OC)cc4)c23)cc1`, the melting point was 144 to 146 °C.
On to `CCOC(=O)CC1C(=O)N(CCc2c[nH]c3ccccc23)CCN1C(=O)c1ccccc1` (configuration not stated), for which the melting point worked out at 144 °C.
Compound `CCCCCCCN(Cc1ccc(CCC(C)C)cc1)C(=O)NC1(OC)C=C(C)C=CN1` (configuration not stated) showed a melting point of 90 to 91 °C.
The same measure for `CC1(C)CC(=O)OC1c1ccc(Cl)c([N+](=O)[O-])c1` (configuration not stated): 134 to 136 °C; for `O=C1c2ccccc2C(=O)N1n1cccc1Cl`: 130 to 132 °C.
Consider `Cc1nc(-c2ccc(-c3ccco3)cc2)c(-c2ccc(S(C)(=O)=O)cc2)o1`, for which the melting point is 143 to 144 °C.
For the compound `CCc1noc(-c2cn(-c3ccc(OC)cc3)cn2)n1`, the melting point fell in the range of 147 to 148 °C.
Regarding `Fc1ccc2[nH]c(CN3C[C@@H]4C[C@H]3CN4c3ccccn3)cc2c1`, the melting point was in the range of 211 to 214 °C.
